Reference: patent publication US11006626B2, “Compounds for protection of cells” (Sulfateq B.V., priority 2012, dated 2021)

Key:
[1] = tested on: Human Embryo Kidney (HEK) 293 cells; assay: Hypothermia/rewarming injury of HEK cells, trypan blue viability count; type: cell-based; conditions: for viability at 0.01 µM / viability at 0.1 µM / viability at 1 µM / viability at 10 µM / viability at 100 µM / viability at 1000 µM: Homo sapiens, HEK293, 24 h, read-out: % cells that survived; for viability at 0.01 µM / viability at 0.1 µM / viability at 1 µM / viability at 10 µM / viability at 100 µM / viability at 1000 µM / % cells that survived: 24 h at 4° C., 24 h rewarming; for % cells that survived, Mean: mean over the tested concentrations
Procedure: Human Embryo Kidney (HEK) 293 cells were cultured in DMEM cell culture medium (Life Technologies, 41965-052) supplemented with fetal calf serum, penicillin and streptomycin. Cells were seeded at a density of 0.8-1.2E6 mL-1 in 25 cm2 polystyrene flasks, placed in a 37° C.
The compounds were dissolved in dimethyl sulfoxide (DMSO) to several concentrations. Before commencing experiments, this stock solution was dissolved in pre-warmed DMEM and further diluted to obtain a concentration range from 10 nM-1 mM. Cell culture medium was then replaced by these dilutions and cells were incubated in the presence of the compound for 1 hour. After incubation, lids were closed tightly and flasks were placed in a 4° C. room and cooled for 24 hours. After this cooling period, cells were placed back in the 37° C. incubator with lids closed and were allowed to rewarm for another 24 hours.
After this rewarming period, microscopic images were taken to assess cell morphology (Nikon D5100, Nikon Diaphot-TMD). Cell culture medium was collected and centrifuged (4 minutes, 2000 rpm). The supernatant was collected and pH was immediately measured to prevent equilibration of the pH by the carbonate buffer in the medium, while the pelleted cells were resuspended in 5 mL of PBS. Cells remaining in the flask were washed twice with phosphate buffered saline (PBS) while the washing product was discarded. Subsequently, the cells were trypsinized by addition of 0.5 mL of trypsine and pooled with the resuspended pellet. This cell suspension was then stained at a final concentration of 0.2% trypan blue (Sigma, T8154), followed by manual assessment of viability and cell number on a Bürker-Türk hemocytometer. To conclude the assay, cell culture medium glucose levels were measured (Roche Accutrend Plus) as an indication of metabolic activity. All of these steps were performed with care to prevent mechanical stress to influence or alter the viability of the cells after cooling.
The amount represents the % cells that survived. […] In the control, the same procedure was applied to two badges of HEK cells.

blood platelets = assay: Cold storage of PRP blood platelets, aggregation of thrombocytes after storage; type: cell-based; design: key: − means that most of the thrombocytes were aggregated; a + indicates that a few cells were still viable but some cells aggregated; a ++ indicates that almost all cells were viable; conditions: 30 mM; PRP platelets stored at 4° C.; 264 hours
Procedure: PRP platelets were harvested and 2.1 ml was suspended in Poly Propylene tubes of 5 ml, closed with a stop.
Several compounds according to the invention were added to the blood platelets directly after preparing the PRP plasma and incubated during 10 minutes at 37° C. or 30 minutes at room temperature. The blood platelets with the compound were then stored at 4° C.
A control was stored under shaking conditions at room temperature. Another control was stored at 4° C. without the addition of a compound.
A sample was taken out of each tube after 264 hours after addition of the compound and tested as follows: • The color and coagulation properties were visually analysed. • The thrombocyte cells that survived were counted and it was evaluated whether the thrombocytes were aggregated. • It was evaluated if the thrombocytes still were able to function after stimulation by the addition of ADP or under influence of collagen in a 96 well plate. • The adhesion was evaluated, meaning the ability of the platelets to bind collagen in a 6 well plate preincubated with collagen. • Via an ELISA assay, it was evaluated whether thromboxane was secreted from the platelets. Thromboxane facilitates aggregation and is produced by activated blood platelets.
Table 3 provides an overview of the results of the addition of the compounds to the blood platelets and evaluates the aggregation of the thrombocytes after addition of the compound according to the invention and cooling until 4° C.

| Compound | viability at 0.01 µM ([1]; 10 nM) | viability at 0.1 µM ([1]; 100 nM) | viability at 1 µM ([1]; 1 μM) | viability at 10 µM ([1]; 10 μM) | viability at 100 µM ([1]; 100 μM) | viability at 1000 µM ([1]; 1 mM) | % cells that survived, Mean [1] | Aggregation of blood platelets after storage (blood platelets) | % cells that survived ([1]; 10 nM) | % cells that survived ([1]; 10 μM) | % cells that survived ([1]; 100 nM) | % cells that survived ([1]; 1 μM) | % cells that survived ([1]; 100 μM) | % cells that survived ([1]; 1 mM) |
| --- | --- | --- | --- | --- | --- | --- | --- | --- | --- | --- | --- | --- | --- | --- |
| Cc1c(C)c2c(c(C)c1O)CCC(C)(C(=O)N1CCC[C@H]1C(=O)O)O2 (mixture of isomers) [SUL - 143, (2S)-1-(6-hydroxy-2,5,7,8-tetramethylchroman-2-carbonyl)pyrrolidine-2-carboxylic acid] | 30.6% | 35% | 14.9% | 49.5% | 97.8% | 98.4% | 54% | + |  |  |  |  |  |  |
| Cc1c(C)c2c(c(C)c1O)CCC(C)(C(=O)N1CCC[C@H]1C(=O)O)O2 (single isomer, unassigned) [SUL - 144] |  | 18.3% | 21.6% |  | 91% | 92.6% | 42% | + | 4.08% | 25.93% |  |  |  |  |
| Cc1c(C)c2c(c(C)c1O)CCC(C)(C(=O)N1CCC[C@H]1C(=O)O)O2 (single isomer, unassigned) [SUL - 145] |  |  |  |  |  |  | 40% | + | 12.99% | 7.84% | 28.68% | 21.43% | 78.61% | 88.08% |
| CNCCNC(=O)C1(C)CCc2c(C)c(O)c(C)c(C)c2O1 (stereo not shown) [SUL - 100, 6-hydroxy-2,5,7,8-tetramethyl-N-(2-(methylamino)ethyl)chroman-2-carboxamide] | 77.8% | 76.9% | 63.2% | 68.8% | 55.6% | 0% | 57% | + |  |  |  |  |  |  |
| CCCCNCC1(C)CCc2c(C)c(O)c(C)c(C)c2O1 (stereo not shown) [SUL - 117, 2-((butylamino)methyl)-2,5,7,8-tetramethylchroman-6-ol] | 0.72% | 89.3% | 93.6% | 84.8% | 90.1% | 0% | 60% | + |  |  |  |  |  |  |
| Cc1c2c(c(C(C)C)c(O)c1C(C)C)CCC(C)(C(=O)O)O2 (stereo not shown) [SUL - 118, 6-hydroxy-5,7-diisopropyl-2,8-dimethylchroman-2-carboxylic acid] | 13.7% | 45.7% | 36.2% | 52.9% | 88.5% | 92.5% | 55% | + |  |  |  |  |  |  |
| Cc1c(C)c2c(c(C)c1O)CCC(C)(C(=O)N[C@H](C)CO)O2 (stereo partly drawn) [SUL - 120, 6-hydroxy-N-((R)-1-hydroxypropan-2-yl)-2,5,7,8-tetramethylchroman-2-carboxamide] | 17.6% | 65.3% | 95.5% | 91.6% | 88.7% | 81.5% | 73% | + |  |  |  |  |  |  |
| Cc1c(C)c2c(c(C)c1O)CCC(C)(C(=O)N1CCNCC1)O2 (stereo not shown) [SUL - 121, (6-hydroxy-2,5,7,8-tetramethylchroman-2-yl)(piperazin-1-yl)methanone] | 87.3% | 89% | 94.8% | 88.9% | 92.7% | 0% | 75% | + |  |  |  |  |  |  |
| Cc1c(C)c2c(c(C)c1O)CC[C@](C)(C(=O)NO)O2 [SUL - 125, (R)-N,6-dihydroxy-2,5,7,8-tetramethylchroman-2-carboxamide] | 8.09% | 0% | 97.3% | 96.7% | 88.4% | 22.5% | 52% | + |  |  |  |  |  |  |
| Cc1c(C)c2c(c(C)c1O)CCC(C)(CN1CCCCC1)O2 (stereo not shown) [SUL - 130, 2,5,7,8-tetramethyl-2-(piperidin-1-ylmethyl)chroman-6-ol] | 0% | 12.7% | 85.7% | 89.6% | 86.5% | 1.49% | 46% |  |  |  |  |  |  |  |
| Cc1c2c(c(C(C)C)c(O)c1C(C)C)CCC(C)(C(=O)NO)O2 (stereo not shown) [SUL - 131, N,6-dihydroxy-5,7-diisopropyl-2,8-dimethylchroman-2-carboxamide] | 2.99% | 1.59% | 22.5% | 91.1% | 75.4% | 0% | 32% |  |  |  |  |  |  |  |
| Cc1c(C)c2c(c(C)c1O)CCC(C)(CN1CCC[C@H]1CO)O2 (stereo partly drawn) [SUL - 134, 2-(((S)-2-(hydroxymethyl)pyrrolidin-1-yl)methyl)-2,5,7,8-tetramethylchroman-6-ol] |  |  |  |  |  |  | 79% |  | 87.43% | 86.58% | 86.34% | 87.74% | 88.82% | 36.51% |
| Cc1c(C)c2c(c(C)c1O)CCC(C)(CN1CCC[C@H]1CO)O2 (stereo partly drawn) [SUL - 135, 2-(((S)-2-(hydroxymethyl)pyrrolidin-1-yl)methyl)-2,5,7,8-tetramethylchroman-6-ol] |  |  |  |  |  |  | 77% |  | 71.94% | 93.85% | 83.90% | 93.82% | 83.46% | 33.06% |
| Cc1c2c(c(C(C)C)c(O)c1C(C)C)CCC(C)(C(=O)N1CCNCC1)O2 (stereo not shown) [SUL - 137, (6-hydroxy-5,7-diisopropyl-2,8-dimethylchroman-2-yl)(piperazin-1-yl)methanone] | 78.2% | 86.1% | 93.9% | 90.9% | 78.7% | 0.53% | 71% |  |  |  |  |  |  |  |
| CCOC(=O)CN1CCN(C(=O)C2(C)CCc3c(C)c(O)c(C)c(C)c3O2)CC1 (stereo not shown) [SUL - 140, ethyl 2-(4-(6-hydroxy-2,5,7,8-tetramethylchroman-2-carbonyl)piperazin-1-yl)acetate] | 8.7% | 17.9% | 95.7% | 97% | 94.6% | 0% | 52% |  |  |  |  |  |  |  |
| COC(=O)C1(C)CCc2c(c(C)c(C(C)C)c(O)c2C(C)C)O1 (stereo not shown) [SUL - 146, methyl 6-hydroxy-5,7-diisopropyl-2,8-dimethylchroman-2-carboxylate] | 0.96% | 17% | 90.6% | 80.7% | 85.5% | 0% | 46% |  |  |  |  |  |  |  |
